Experimental data: patent US7413853B2, “Modulation of metabolism of steroids and xenobiotics” (The Salk Institute for Biological Studies, priority 2001, dated 2008)
Entries after “also recorded” stand apart in the source; their conditions may differ. Where two headings read alike, the source gives them in different places.

Tests used:
[1] = test system: rat CYP3A23 gene cellular promoter
Experimental: The PCR-amplified sequences and target mutagenesis were confirmed by DNA sequencing.
(§1) All compounds were purchased from Sigma.
The above notion would predict: (1) The SXR/PXR response element is essential for the activation of CYP3A genes; and (2) The response elements of SXR and PXR are interchangeable. Therefore, mutagenesis analysis was performed on the promoter of the rat CYP3A23 gene to examine these predictions.

PXR [2] = target: T1, PXR (Mus musculus, UniProt O54915)
T1 sequence (O54915 1-431): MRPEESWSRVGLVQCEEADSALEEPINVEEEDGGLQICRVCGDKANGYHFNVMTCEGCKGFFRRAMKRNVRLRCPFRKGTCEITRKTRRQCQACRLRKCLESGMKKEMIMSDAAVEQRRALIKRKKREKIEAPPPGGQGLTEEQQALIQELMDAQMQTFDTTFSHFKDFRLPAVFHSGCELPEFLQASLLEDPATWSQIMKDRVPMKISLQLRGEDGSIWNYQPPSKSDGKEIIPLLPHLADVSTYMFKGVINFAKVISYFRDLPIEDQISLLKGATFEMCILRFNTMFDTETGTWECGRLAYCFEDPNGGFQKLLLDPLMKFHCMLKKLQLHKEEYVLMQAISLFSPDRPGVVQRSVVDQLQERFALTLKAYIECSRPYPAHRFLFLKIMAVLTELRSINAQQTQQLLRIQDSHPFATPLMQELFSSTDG

SXR [3] = test: Activation of SXR in transfection-based assays; set-up: activation of SXR: dose or concentration left out as unconfirmed
Experimental: To characterize its response properties, a large variety of steroids, including intermediate and major products of known steroid biosynthetic pathways were tested.

GR = target: T2, GR (Homo sapiens, UniProt P04150); test: Activity of corticosterone catabolites on GR; format: cell-based; conditions: reduced or hydroxylated corticosterone derivatives
T2 sequence (P04150 1-777): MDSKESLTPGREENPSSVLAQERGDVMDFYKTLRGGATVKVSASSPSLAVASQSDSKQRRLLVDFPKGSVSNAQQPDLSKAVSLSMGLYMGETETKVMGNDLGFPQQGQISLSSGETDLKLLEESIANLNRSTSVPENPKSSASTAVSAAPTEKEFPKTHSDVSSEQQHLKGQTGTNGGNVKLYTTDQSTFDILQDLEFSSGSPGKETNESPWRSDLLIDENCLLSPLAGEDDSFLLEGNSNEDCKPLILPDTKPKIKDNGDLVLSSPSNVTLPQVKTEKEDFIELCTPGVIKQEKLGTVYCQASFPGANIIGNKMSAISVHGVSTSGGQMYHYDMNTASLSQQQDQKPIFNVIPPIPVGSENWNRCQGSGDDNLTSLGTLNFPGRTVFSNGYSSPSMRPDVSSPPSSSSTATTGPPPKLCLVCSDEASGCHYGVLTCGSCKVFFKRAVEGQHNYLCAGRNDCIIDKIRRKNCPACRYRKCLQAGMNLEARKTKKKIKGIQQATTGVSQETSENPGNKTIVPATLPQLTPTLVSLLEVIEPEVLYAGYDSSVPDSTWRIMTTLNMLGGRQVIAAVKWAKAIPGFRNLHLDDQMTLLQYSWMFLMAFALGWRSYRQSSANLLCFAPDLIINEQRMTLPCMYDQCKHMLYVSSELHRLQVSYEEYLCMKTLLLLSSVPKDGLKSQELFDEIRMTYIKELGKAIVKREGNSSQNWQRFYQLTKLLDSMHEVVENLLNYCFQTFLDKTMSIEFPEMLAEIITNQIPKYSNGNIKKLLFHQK

CAR = target: T3, CAR (Mus musculus, UniProt O35627); test: tk-UGT1A6/DR-3 luciferase reporter transfected into CV-1 cells with CAR expression vector; format: cell-based; conditions: tk-UGT1A6/DR-3-Luc
T3 construct: expressed in transfected cells; host or cells: monkey kidney CV-1 cells
T3 sequence (O35627 1-358): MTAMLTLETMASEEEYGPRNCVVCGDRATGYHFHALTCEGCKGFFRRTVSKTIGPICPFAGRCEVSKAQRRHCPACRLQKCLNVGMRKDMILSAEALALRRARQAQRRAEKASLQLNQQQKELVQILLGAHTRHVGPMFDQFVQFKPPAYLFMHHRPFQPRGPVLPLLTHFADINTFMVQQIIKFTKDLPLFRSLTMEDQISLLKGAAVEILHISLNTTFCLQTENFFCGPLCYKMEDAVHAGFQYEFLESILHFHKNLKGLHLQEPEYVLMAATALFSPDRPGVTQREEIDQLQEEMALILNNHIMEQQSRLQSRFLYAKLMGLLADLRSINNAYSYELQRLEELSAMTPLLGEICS
Text: The reporter gene comprises a thymadine kinase (TK) linked to UGT1A6/DR-3 linked to a luciferace (LUC).
In an exemplary assay, a luciferase reporter gene containing the UGT1A6/DR-3 upstream of a minimal thymidine kinase (tk) promoter was constructed and transfected into monkey kidney CV-1 cells together with expression vectors for SXR, PXR, or CAR.
In FIG. 2, the tk-UGT1A6/DR3-Luc construct comprises a UGT inverted or direct repeat and/or a nuclear receptor binding site such that activation of the response element results in transcription of UGT. […] The response element can also comprise an inverse repeat of a suitable half site separated by a 6 nucleotide spacer, or an inverse repeat of a variant thereof, separated by a 6 nucleotide spacer.

[4] = clinical trials, 2510 patients; alanine aminotransferase level > three times the upper limit of normal; cited from earlier work
SXR [5] = target: T4, SXR (Homo sapiens, UniProt O75469); test: Activation of SXR by thiazolidinediones in hepatocyte cultures and transgenic animals
T4 sequence (O75469 1-434): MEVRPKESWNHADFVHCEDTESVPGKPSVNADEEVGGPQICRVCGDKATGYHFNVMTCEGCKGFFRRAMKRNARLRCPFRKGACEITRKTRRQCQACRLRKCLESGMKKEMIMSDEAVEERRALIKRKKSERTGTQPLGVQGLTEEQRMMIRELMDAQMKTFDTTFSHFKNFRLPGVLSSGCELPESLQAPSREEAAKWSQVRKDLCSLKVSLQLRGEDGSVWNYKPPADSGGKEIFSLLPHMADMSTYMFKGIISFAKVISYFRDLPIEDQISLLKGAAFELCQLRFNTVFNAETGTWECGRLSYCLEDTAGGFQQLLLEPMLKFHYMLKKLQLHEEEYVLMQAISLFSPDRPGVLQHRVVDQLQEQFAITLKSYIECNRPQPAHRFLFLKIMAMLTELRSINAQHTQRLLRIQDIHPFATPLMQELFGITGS
Experimental: as §1
The animals were allowed free access to food and water at all times. […] When necessary, mice were treated with a single intraperitoneal injection of DEX (50 mg/kg), PCN (40 mg/kg), or CTZ (50 mg/kg).

PXR [6] = target: T1, PXR; test: Activation of mouse receptor PXR by the panel of compounds
[7] = transfection-based assays, steroids tested

Compound: C[C@]12CC[C@@H]3c4ccc(O)cc4CC[C@H]3[C@@H]1CC[C@@H]2O [estradiol, 17β-estradiol]
- induction of CYP3A23 cellular promoter reporter [1]: significant induction
- activation of PXR (PXR [2]): similarly activated
- activation of SXR by compounds known to induce CYP3A4 (SXR [3]): most potent activators
- SXR activation of DR-3, DR-4 and DR-5 elements (SXR [3]; series of transfections): among the best activators
- activation of SXR (SXR [3]; [7]): remarkably effective activators

Compound: C[C@]12C[C@H](O)[C@H]3[C@@H](C[C@@H](O)C4=CC(=O)CC[C@@]43C)[C@@H]1CC[C@@H]2C(=O)CO [6β-hydroxy corticosterone]
- activity on GR (GR): slightly active
- activation of SXR by products of steroid catabolism (SXR [3]): virtually inactive; also recorded: virtual inactivity

Compound: C[C@@]12CCC[C@H]1[C@@H]1CC[C@H]3C[C@@H](O)CC[C@]3(C)[C@H]1CC2 [androstanol]
- effect on CAR activation of UGT reporter (CAR): inhibited

Compound: CC(=O)[C@H]1CC[C@H]2[C@@H]3CC=C4C[C@@H](O)CC[C@]4(C)[C@H]3CC[C@]12C [pregnenolone]
- activation of CYP3A23 cellular promoter reporter [1]: fail to activate or behave as poor activators
- induction of CYP3A23 cellular promoter reporter [1]: significant induction
- SXR activation of DR-3, DR-4 and DR-5 elements (SXR [3]; series of transfections): among the best activators

Compound: O=c1oc2cc(O)ccc2c2oc3cc(O)ccc3c12 [coumestrol]
- activation of SXR by compounds known to induce CYP3A4 (SXR [3]): most potent activators

Compound: C[C@]12CCC(=O)C[C@H]1CC[C@@H]1[C@@H]2[C@@H](O)C[C@]2(C)[C@@H](C(=O)CO)CC[C@@H]12 [5β]
- activity on GR (GR): completely inactive
- activation of SXR by products of steroid catabolism (SXR [3]): effective SXR activators

Compound: Cc1c(C)c2c(c(C)c1O)CCC(C)(COc1ccc(CC3SC(=O)NC3=O)cc1)O2 (stereo not drawn) [troglitazone]
- troglitazone-induced hepatotoxicity, share of patients [4]: 1.9%
- activation of SXR by TZDs (SXR [5]): activate SXR

Compound: Clc1cnc(Oc2ccc(Oc3ncc(Cl)cc3Cl)cc2)c(Cl)c1 [TCPOBOP, 1,4-bis[2-(3,5-dichloropyridyloxy)] benzene]
- effect on CAR activation of UGT reporter (CAR): potentiated

Compound: CN(CCOc1ccc(CC2SC(=O)NC2=O)cc1)c1ccccn1 (stereo not drawn) [BRL, Rosiglitazone]
- activation of SXR by TZDs (SXR [5]; hepatocyte cultures and transgenic animals): fail to activate SXR

Compound: C[C@]12CCC(=O)C[C@@H]1CC[C@@H]1[C@@H]2CC[C@]2(C)[C@@H](O)CC[C@@H]12 [dihydrotestosterone]
- SXR activation of DR-3, DR-4 and DR-5 elements (SXR [3]): among the best activators
- activation of SXR (SXR [3]): remarkably effective activators

Compound: C[C@]12C[C@H](O)[C@H]3[C@@H](CCC4=CC(=O)CC[C@@]43C)[C@@H]1CC[C@@H]2C(=O)CO [corticosterone]
- activation of SXR by compounds known to induce CYP3A4 (SXR [3]): most potent activators
- SXR activation of DR-3, DR-4 and DR-5 elements (SXR [3]; series of transfections): among the best activators
- activation of SXR (SXR [3]; [7]): most potent and efficacious activator; also recorded: activated; also recorded: strongest known activator

Compound: CC(=O)[C@H]1CC[C@H]2[C@@H]3CCC4=CC(=O)CC[C@]4(C)[C@H]3CC[C@]12C [progesterone]
- SXR activation of DR-3, DR-4 and DR-5 elements (SXR [3]; series of transfections): among the best activators
- activation of SXR (SXR [3]; [7]): activated

Compound: C[C@]12CCC(=O)C[C@@H]1CC[C@@H]1[C@@H]2[C@@H](O)C[C@]2(C)[C@@H](C(=O)CO)CC[C@@H]12 [5α]
- activity on GR (GR): slightly active
- activation of SXR by products of steroid catabolism (SXR [3]): effective SXR activators

Compound: CC/C(=C(/CC)c1ccc(O)cc1)c1ccc(O)cc1 [DES, diethylstilbestrol]
- activation of SXR by compounds known to induce CYP3A4 (SXR [3]): most potent activators

Compound: C[C@]12CCC(=O)C=C1CC[C@@H]1[C@@H]2[C@@H](O)C[C@@]2(C)[C@H]1CC[C@]2(O)C(=O)CO [cortisol]
- SXR activation of DR-3, DR-4 and DR-5 elements (SXR [3]; series of transfections): little response

Compound: CCC1(c2ccccc2)C(=O)NC(=O)NC1=O [phenobarbital]
- activation of CYP3A23 cellular promoter reporter [1]: fail to activate or behave as poor activators
- induction of CYP3A23 cellular promoter reporter [1]: significant induction

Compound: C[C@]12CC[C@H](O)CC1=CC[C@@H]1[C@@H]2CC[C@]2(C)C(=O)CC[C@@H]12 [DHEA, dehydroepiandrosterone]
- SXR activation of DR-3, DR-4 and DR-5 elements (SXR [3]): intermediate group

Compound: estrogen
- activation of SXR (SXR [3]; [7]): activated

Compound: C[C@]12CCC(=O)C=C1CC[C@@H]1[C@@H]2C(=O)C[C@@]2(C)[C@H]1CC[C@]2(O)C(=O)CO [cortisone]
- SXR activation of DR-3, DR-4 and DR-5 elements (SXR [3]; series of transfections): intermediate group

Compound: C[C@]12CCC(=O)C=C1CC[C@@H]1[C@@H]2[C@@H](O)C[C@]2(C=O)[C@@H](C(=O)CO)CC[C@@H]12 [aldosterone]
- activation of SXR (SXR [3]): inactive
- SXR activation of DR-3, DR-4 and DR-5 elements (SXR [3]; series of transfections): little response

Compound: Cc1ccc2cc3c(ccc4ccccc43)c3c2c1CC3 [3MC, 3-methylcholanthrene]
- activation of CYP3A23 cellular promoter reporter [1]: fail to activate or behave as poor activators

Compound: C[C@]12CC[C@H]3[C@@H](CCC4=CC(=O)CC[C@@]43C)[C@@H]1CC[C@@H]2O [testosterone]
- activation of PXR (PXR [6]): similarly activated
- activation of SXR (SXR [3]): activated
